Data as given in US11478451B1, “Macrocyclic chlorine substituted indole derivatives” (Bayer Aktiengesellschaft, priority 2017, dated 2022).
Read-outs that look alike come from different tables or passages of the source.

What was measured:
MCL-1 = MCL-1 (Homo sapiens (Human), UniProt Q07820, K194A/K197A/R201A); assay: Protein-protein interaction assay MCL-1/Noxa BH3 peptide (MCL-1 assay), TR-FRET; assay type: binding; settings: IC50, median; MCL-1/Noxa BH3 TR-FRET
Experimental: The dose-dependent inhibition by the compounds described in this invention of the interaction between MCL-1 and the BH3 domain of Noxa (both human) was determined using a steady state binding competition assay with time-resolved fluorescence energy transfer (TR-FRET) readout. […] The MBP-MCL-1 was purchased from Beryllium (Bedford, Mass., USA). The expression and purification of this protein construct has been described elsewhere (DOI:10.1371/journal.pone.0125010). The Noxa BH3-derived peptide can be obtained from e.g. Biosyntan (Berlin, Germany), 50812.1.
For that, 100-fold concentrated DMSO solutions were prepared by serial dilutions (1:3.4) of a 2 mM stock solution in a clear, 384-well microtiter plate (Greiner Bio-One, Frickenhausen, Germany). From there, 50 nl were transferred in a dark test plate (Greiner Bio-One, Frickenhausen, Germany). […] This was followed by a 10-minute incubation step at 22° C. for pre-equilibration of the putative complex between MBP-MCL-1 and the compounds.
The mixture was incubated in the dark for one hour at 22° C. and then overnight at 4° C.
The resulting data (ratio) were normalized, taking 0% inhibition as the mean value of control measurements (usually 32 data points) where all reagents were included. In this case 50 nl DMSO were used instead of compounds. […] IC50 values were determined by regression analysis based on a 4 parameter equation (minimum, maximum, IC50, Hill; Y=Max+(Min−Max)/(1+(X/IC50)^Hill) using the Screener Software (Genedata).

AMO-1 cells = assay: Antiproliferation assay (CellTiter-Glo, 72 h), AMO-1; assay type: cell-based; settings: IC50, median, AMO-1, 72 h, read-out: Antiproli AMO-1 [M] median
Summary of the method: (§1)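 Treated cells sat 72 h in a humidified 37 °C incubator, outer wells unused, before CellTiter-Glo reagent and a 10 min wait preceded luminescence reading; identical measurement of a parallel day 0 plate defined time zero.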

SUDHL10 cells [1] = assay: Induction of cytotoxicity (CellTiter-Glo, 5 h), SUDHL10; settings: Homo sapiens, SU-DHL10, 5 h, read-out: Cytotox SUDHL10 [M] (median), IC50, median; SUDHL10, 5 h
MCL1 protein = MCL1 protein (Homo sapiens (Human), UniProt Q07820); assay: PIxEL: protein-protein interaction in permeabilized cells by ELISA (MCL1/biotin-BIM BH3 peptide, RKO cells); assay type: cell-based; settings: IC50, median, serum free
Chain of MCL1 protein (Q07820 whole entry): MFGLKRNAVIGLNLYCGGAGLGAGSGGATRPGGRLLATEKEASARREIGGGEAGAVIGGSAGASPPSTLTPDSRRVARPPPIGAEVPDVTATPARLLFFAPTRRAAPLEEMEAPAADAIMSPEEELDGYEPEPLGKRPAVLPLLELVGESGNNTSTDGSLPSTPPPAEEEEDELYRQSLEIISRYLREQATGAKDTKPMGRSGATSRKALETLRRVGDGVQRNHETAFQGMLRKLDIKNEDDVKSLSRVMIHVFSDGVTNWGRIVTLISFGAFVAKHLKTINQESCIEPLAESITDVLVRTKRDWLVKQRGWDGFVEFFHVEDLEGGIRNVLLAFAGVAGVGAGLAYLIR
Experimental: PIxEL: Protein-Protein Interaction in Permeabilized Cells by ELISA
Most MCL1 protein molecules are localized at the mitochondria outer membrane and sequester pro-apoptotic proteins through binding of their BCL2 homology domain 3 (BH3 domain). MEB buffer (150 mM mannitol, 10 mM HEPES pH 7.5, 50 mM KCl, 20 μM EDTA, 20 μM EGTA, 5 mM potassium succinate, 0.1% protease-free BSA (SIGMA) with low dose digitonin (0.002%) permeabilizes plasma membrane while leaves live mitochondria, where MCL1 maintains its native localization and conformation. Unlike biophysical assays (e.g. TR-FRET) that use truncated recombinant MCL1 protein, this assay uses full length endogenous MCL1 protein at mitochondria outer membrane. It measures the interaction between MCL1 protein and biotinylated BIM BH3 peptide. Compounds can compete with BIM BH3 peptide to bind to MCL1 protein.
On day 1, RKO colon cancer cell line cells were plated at 0.8 million cells/ml, 100 μl/well in 96-well flat bottom TC plates (Corning). MCL1 antibody (Santa Cruz sc-12756) were diluted at 200 fold (final concentration 1 μg/ml) in carbonate buffer (Thermo Fisher Scientific, pH 9.6), and 50 μl of diluted antibody was added to each well of high bind ELISA plates ([…]). Each plate was tapped to make sure liquid covering entire bottom of wells and incubate at 37° C. overnight.
On the second day, MCL1 antibody was washed from ELISA plate. 250 μl Odyssey® Blocking Buffer (PBS) (Li-Cor) was added to each well, incubated at room temperature for at least 1 hour, then washed once with 250 μl 1×PBST. Plates with RKO cells were gently washed once with 100 μl/well PBS, once with 100 μl/well MEB buffer without digitonin, then 100 μl of MEB buffer with 0.002% digitonin was gently added to each well. Compounds were added with HP Tecan compound dispenser in 3-fold dilution series, highest dose 30 μM, 10-dose per compound in quadruplicates. Biotin-BIM peptide (synthesized by 21st Century) was added with HP Tecan compound dispenser at 0.2 μM immediately after the addition of compounds. Plates were rocked for 1 hour at room temperature. Then MEB buffer was aspirated and 50 μl of CHAPS buffer (50 mM Tris-Cl, pH 7.4, 150 mM NaCl, 1% CHAPS, 1 mM EDTA, 1 mM EGTA, cOmplete protease inhibitors (Roche), PhosSTOP (Roche)) was added to each well. Plates were rocked for 1 hour at 4° C., then 45 μl cell lysate from each well were transferred to ELISA plates coated with MCL1 antibody. Plates were incubated overnight in the cold room with rocking.
On the third day, ELISA plates were washed once with 250 μl 1×PBST. Streptavidin-poly-HRP (Thermo Fisher Scientific) was diluted to 20 ng/ml in Odyssey blocking buffer plus 0.05% Triton-100, and 100 μl was added to each well of the ELISA plate. Plates were incubated at RT from 1 hour with rocking, then washed with 100 μL 1×PBST for 3 times. Each SuperSignal ELISA Femto Maximum Sensitivity substrate was added to a 50-ml tube and mixed, then 100 μl of mixed substrate was added to each well. Plates were shaken for 1 minute then luminescence was measured by Envision plate reader […]. Signal of each well were normalized by no-compound control and no-cell control. IC50 was calculated using Graphic Pad PRISM software.

HMC-1-8 cells = assay: Antiproliferation assay (CellTiter-Glo, 72 h), HMC-1-8; assay type: cell-based; settings: IC50, median, HMC-1-8, 72 h, read-out: Antiproli HMC-1-8 [M] median
Summary of the method: as §1

SUDHL5 cells [2] = assay: Induction of cytotoxicity (CellTiter-Glo, 5 h), SUDHL5; settings: Homo sapiens, SU-DHL-5, 5 h, read-out: Cytotox SUDHL5 [M] (median), IC50, median; SUDHL5, 5 h
SUDHL5 cells [3] = assay: Induction of caspase-3/7 activity (Caspase-Glo 3/7), SUDHL5; assay type: cell-based; settings: EC50, median, SUDHL5, 3 h treatment
Summary of the method: (§2)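 Read-out: Caspase-Glo 3/7 signal, background-corrected against medium-only wells, taken after cells had been incubated with compounds for 3 h at 37 °C.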

SUDHL5 cells [4] = assay: Antiproliferation assay (CellTiter-Glo, 72 h), SUDHL5; assay type: cell-based; settings: IC50, median, SUDHL5, 72 h, read-out: Antiproli SUDHL5 [M] (median)
Summary of the method: as §1

SUDHL10 cells [5] = assay: Induction of caspase-3/7 activity (Caspase-Glo 3/7), SUDHL10; assay type: cell-based; settings: EC50, median; SUDHL10, 3 h treatment; listed as 082
Summary of the method: as §2

SNU-389 cells = assay: Antiproliferation assay (CellTiter-Glo, 72 h), SNU-389; assay type: cell-based; settings: 72 h; read-out: Antiproli SNU-389 [M] median
Experimental: (§3) Assessment of the Anti-Proliferative Effect of Compounds in Different Cell Lines
(§4) The impact of compounds on the proliferation of different cell lines was assessed using the CellTiter-Glo® Luminescent Cell Viability reagent from Promega (G7573).
(§5) In parallel, cells were plated in a reference (day 0) plate for time zero determination.
(§6) Rim wells were excluded. The cells were incubated for 72 h hours in a humidified incubator at 37° C. The day 0 plate was measured by adding 30 μL/well of CTG solution (CellTiter-Glo® Luminescent Cell Viability reagent, Promega G7573) to time zero wells in the reference plate followed by a 10 minutes incubation and luminescence reading at 0.1 ms. using the PHERAstar FS microplate reader (BMG Labtech).
(§7) After 72 h incubation, the treated plates were measured in the same way as the day 0 plate mentioned above.

DMS-114 cells = assay: Antiproliferation assay (CellTiter-Glo, 72 h), DMS-114; assay type: cell-based; settings: Homo sapiens, DMS-114, 72 h; read-out: Antiproli DMS-114 [M] median
Experimental: as §3, §4, §5, §6, §7

Chain of MCL-1 (Q07820 whole entry K194A/K197A/R201A, looked up, the tested form may be a part): as the sequence (Q07820 whole entry) above, with K194A, K197A, R201A counted along it

| IC50 (MCL-1) [nM] | IC50 (MCL1 protein) [nM] | IC50 (SUDHL5 cells [4]; Homo sapiens, SU-DHL-5, 72 h) [M] | Structure (SMILES) | IC50 (AMO-1 cells; Homo sapiens, AMO1, 72 h) [M] | IC50 (SUDHL10 cells [1]) [M] | IC50 (SUDHL5 cells [2]) [M] | IC50 (HMC-1-8 cells) [M] | other results |
| --- | --- | --- | --- | --- | --- | --- | --- | --- |
| 1.6 | 225 | 8.1e-07 | Cc1c2c(nn1C)COCC1CC1Cn1c(C(=O)O)c(CCCOc3cccc4ccccc34)c3ccc(Cl)c-2c31 (single isomer, unassigned) [Example 82, 3-chloro-4,5-dimethyl-14-{3-[(naphthalen-1-yl)oxy]propyl}-5,7,9a,10,10a,11-hexahydro-9H-cyclopropa[3,4]pyrazolo[4′,3′:9,10][1,6]oxazacycloundecino[8,7,6-hi]indole-13-carboxylic acid] |  |  | 4.9e-07 |  | IC50 (AMO-1 cells; listed as 082): 2.9e-06 M; EC50 (SUDHL5 cells [3]; listed as 082): 490 nM; EC50 (SUDHL10 cells [5]): 1100 nM |
| 2.7 | 752 | 2.7e-07 | Cc1c2c(nn1C)COCC1CC1Cn1c(C(=O)O)c(CCCOc3cccc4ccccc34)c3ccc(Cl)c-2c31 (single isomer, unassigned; stereoisomer 1) [Example 65, (9aS,10aR or 9aR,10aS)-3-chloro-4,5-dimethyl-14-{3-[(naphthalen-1-yl)oxy]propyl}-5,7,9a,10,10a,11-hexahydro-9H-cyclopropa[3,4]pyrazolo[4′,3′:9,10][1,6]oxazacycloundecino-[8,7,6-hi]indole-13-carboxylic acid—Stereoisomer 1] | 6e-07 |  | 3.3e-07 | 2.5e-06 | EC50 (SUDHL5 cells [3]; Homo sapiens, SU-DHL-5, 3 h): 270 nM |
|  | 1740 |  | Cc1c2c(nn1C)COCC1CC1Cn1c(C(=O)O)c(CCCOc3cccc4ccccc34)c3ccc(Cl)c-2c31 (single isomer, unassigned; stereoisomer 2) [Example 66, (9aR,10aS or 9aS,10aR)-3-chloro-4,5-dimethyl-14-{3-[(naphthalen-1-yl)oxy]propyl}-5,7,9a,10,10a,11-hexahydro-9H-cyclopropa[3,4]pyrazolo[4′,3′:9,10][1,6]oxazacycloundecino-[8,7,6-hi]indole-13-carboxylic acid—Stereoisomer 2] |  | 1.4e-07 |  | 1e-06 | IC50 (SNU-389 cells): 5.76e-07 M; IC50 (DMS-114 cells): 3.15e-07 M |

Further lines, the compound ahead of its results:

| Structure (SMILES) | IC50 (MCL-1) [nM] | IC50 (MCL1 protein) [nM] | IC50 (SUDHL5 cells [4]; Homo sapiens, SU-DHL-5, 72 h) [M] | IC50 (AMO-1 cells; Homo sapiens, AMO1, 72 h) [M] | IC50 (SUDHL10 cells [1]) [M] | IC50 (SUDHL5 cells [2]) [M] | IC50 (HMC-1-8 cells) [M] | other results |
| --- | --- | --- | --- | --- | --- | --- | --- | --- |
| Cc1c2c(nn1CCCN1CCN(C)CC1)COCCCCn1c(C(=O)O)c(CCCOc3cccc4ccccc34)c3ccc(Cl)c-2c31 (single isomer, unassigned; enantiomer 1) [Example 49, (+)-4-chloro-3-methyl-2-[3-(4-methylpiperazin-1-yl)propyl]-7-{3-[(naphthalen-1-yl)oxy]propyl}-2,10,11,12,13,15-hexahydropyrazolo[4′,3′:9,10][1,6]oxazacycloundecino[8,7,6-hi]indole-8-carboxylic acid (Enantiomer 1)] | 1.7 | 436 |  | 1.5e-06 | 1e-06 |  |  |  |
| Cc1c2c(nn1C)CN(C)CCCCn1c(C(=O)O)c(CCCOc3cccc4cc(F)ccc34)c3ccc(Cl)c-2c31 (racemic) [Example 30, (rac)-4-chloro-7-{3-[(6-fluoronaphthalen-1-yl)oxy]propyl}-2,3,14-trimethyl-10,11,12,13,14,15-hexahydro-2H-pyrazolo[3′,4′:8,9][1,6]diazacycloundecino[10,11,1-hi]indole-8-carboxylic acid] |  | 227 |  | 4.2e-07 |  |  |  | IC50 (HMC-1-8 cells; 72 h): 1.6e-06 M |
| CCc1c2c(nn1C)CN(CCN1CCOCC1)CCCCn1c(C(=O)O)c(CCCOc3cccc4cc(F)ccc34)c3ccc(Cl)c-2c31 (single isomer, unassigned; enantiomer 2) [Example 143, 4-chloro-3-ethyl-7-{3-[(6-fluoronaphthalen-1-yl)oxy]propyl}-2-methyl-14-[2-(morpholin-4-yl)ethyl]-10,11,12,13,14,15-hexahydro-2H-pyrazolo[3′,4′:8,9][1,6]diazacycloundecino[10,11,1-hi]indole-8-carboxylic acid (Enantiomer 2)] | 62 |  |  |  |  |  |  | IC50 (SUDHL5 cells [4]): 9.4e-06 M |
